The record followed here is ChEMBL document CHEMBL1125090, “Expedient synthesis and biochemical properties of an [125I]-labeled analogue of glyburide, a radioligand for ATP-inhibited potassium channels” (J Med Chem, 1990).

This experiment in a line: Inhibition of [125I]-I binding to ATP-inhibited Potassium channel receptor of Rat brain homogenate.
The compound `COc1ccc(I)cc1C(=O)NCCc1ccc(S(=O)(=O)NC(=O)NC2CCCCC2)cc1` gave a Ki of 2.6 nM.

As to `Cc1cnc(C(=O)NCCc2ccc(S(=O)(=O)NC(=O)NC3CCCCC3)cc2)cn1` [GLIPIZIDE], the Ki stood at 8.2 nM.

The compound `COc1ccc(Cl)cc1C(=O)NCCc1ccc(S(=O)(=O)NC(=O)NC2CCCCC2)cc1` [GLYBURIDE] returned a Ki of 0.608 nM.

One may read the Ki as the equilibrium dissociation constant of an inhibitor or competing ligand from its target. Read a high Ki as lower affinity.
